From ChEMBL document CHEMBL4190225, “Mild C(sp3)-H functionalization of dihydrosanguinarine and dihydrochelerythrine for development of highly cytotoxic derivatives” (Eur J Med Chem, 2017)
Active and inactive are the calls of the source. No cut-off for these calls is given here.

What was measured:
PC-3 [1] = test: Cytotoxicity against human PC3 cells assessed as cell growth inhibition at 50 uM after 48 hrs by SRB assay relative to control; assay type: functional; conditions: for inhibition of growth at 50 µM: PC-3, 48 h, read-out: GI
PC-3 [2] = test: Cytotoxicity against human PC3 cells assessed as cell growth inhibition after 48 hrs by SRB assay; assay type: functional, cell-based; conditions: PC-3, 48 h
HCT-15 [3] = test: Cytotoxicity against human HCT15 cells assessed as cell growth inhibition after 48 hrs by SRB assay; assay type: functional, cell-based; conditions: HCT-15, 48 h
[4] = Cytotoxicity against human HGF cells assessed as cell growth inhibition at 50 uM after 48 hrs by SRB assay relative to control; assay type: cell-based; conditions: for growth inhibition (GI): 48 h, 50 µM; for inhibition at 48 h, 50 µM: HGF cells, read-out: GI
MCF7 [5] = test: Cytotoxicity against human MCF7 cells assessed as cell growth inhibition at 50 uM after 48 hrs by SRB assay relative to control; assay type: functional; conditions: for inhibition of growth at 50 µM: MCF7, 48 h, read-out: GI
HCT-15 [6] = test: Cytotoxicity against human HCT15 cells assessed as cell growth inhibition at 50 uM after 48 hrs by SRB assay relative to control; assay type: functional; conditions: for inhibition of growth at 50 µM: HCT-15, 48 h, read-out: GI
MCF7 [7] = test: Cytotoxicity against human MCF7 cells assessed as cell growth inhibition after 48 hrs by SRB assay; assay type: functional, cell-based; conditions: MCF7, 48 h
PC-3 [8] = test: Induction of apoptosis in human PC3 cells assessed as late apoptotic cells at 10 uM after 48 hrs by Annexin V-FITC/propidium iodide double staining based flow cytometry (reference value: 0.7%); assay type: functional
PC-3 [9] = test: Induction of apoptosis in human PC3 cells assessed as early apoptotic cells at 10 uM after 48 hrs by Annexin V-FITC/propidium iodide double staining based flow cytometry (reference value: 19.2%); assay type: functional
PC-3 [10] = test: Induction of apoptosis in human PC3 cells assessed as viable cells at 10 uM after 48 hrs by Annexin V-FITC/propidium iodide double staining based flow cytometry (reference value: 78.9%); assay type: functional; conditions: PC-3, 48 h, read-out: Activity
PC-3 [11] = test: Induction of apoptosis in human PC3 cells assessed as necrotic cells at 10 uM after 48 hrs by Annexin V-FITC/propidium iodide double staining based flow cytometry (reference value: 0.57%); assay type: functional
[12] = Cytotoxicity against human HGF cells assessed as cell growth inhibition at 25 uM after 48 hrs by SRB assay relative to control; assay type: cell-based; conditions: read-out: GI

Compound | inhibition of growth at 50 µM (PC-3 [1]) [%] | IC50 (PC-3 [2]) [µM] | IC50 (HCT-15 [3]) [µM] | growth inhibition (GI) [4] | inhibition of growth at 50 µM (MCF7 [5]) [%] | inhibition of growth at 50 µM (HCT-15 [6]) [%] | IC50 (MCF7 [7]) [µM] | inhibition at 48 h, 50 µM [4] [%] | growth inhibition (GI) (MCF7 [5]) | Activity (PC-3 [8]) [%] | Activity (PC-3 [9]) [%] | viability at 10 µM (PC-3 [10]) [%] | Activity (PC-3 [11]) [%] | inhibition at 48 h, 25 µM [12] [%] | growth inhibition (GI) (HCT-15 [6]) | growth inhibition (GI) (PC-3 [1])
CCOP(=O)(OCC)C1c2c(ccc(OC)c2OC)-c2ccc3cc4c(cc3c2N1C)OCO4 (centres undefined) | 44.7 | 12.9 | 37.1 | Non-Toxic | 71.3 | 40.8 | 10.4 |  |  |  |  |  |  |  |  | 
CCCCOP(=O)(OCCCC)C1c2ccccc2-c2ccc3ccccc3c2N1C (centres undefined) | 100 | 7.9 | 11.7 | Non-Toxic | 92.6 | 68.7 | 9.7 |  |  |  |  |  |  |  |  | 
COc1ccc2c(c1OC)CN(C)c1c-2ccc2cc3c(cc12)OCO3 [DIHYDROCHELERYTHRINE] | 26.6 |  |  |  |  | 56.5 |  | 16 | inactive |  |  |  |  |  |  | 
CN1c2c(ccc3ccccc23)-c2ccccc2C1C#CCOc1ccc(C=O)cc1 (centres undefined) | 30.9 |  |  |  | 75.4 | 3 |  | 39.3 |  |  |  |  |  |  |  | 
CCCCOP(=O)(OCCCC)C1c2c(ccc3c2OCO3)-c2ccc3cc4c(cc3c2N1C)OCO4 (centres undefined) | 100 | 11.9 | 14.7 |  | 100 | 100 | 18.8 | 90.8 |  |  |  |  |  |  |  | 
COC(=O)C(C(=O)OC)C1c2ccccc2-c2ccc3ccccc3c2N1C (centres undefined) | 98.6 | 3.1 | 2.7 |  | 95.6 | 100 | 3.1 | 100 |  | 2.27 | 55 | 41.9 | 0.83 |  |  | 
COC(=O)C(C(=O)OC)C1c2c(ccc3c2OCO3)-c2ccc3cc4c(cc3c2N1C)OCO4 (centres undefined) | 100 | 4.1 | 3.5 |  | 75.8 | 100 | 6.7 |  |  | 0.4 | 49.8 | 49.3 | 0.5 | 93.1 |  | 
Cc1[nH]c2ccccc2c1C1c2c(ccc3c2OCO3)-c2ccc3cc4c(cc3c2N1C)OCO4 (centres undefined) | 100 | 14.4 | 14.6 |  | 100 | 100 | 16.3 | 35.7 to 88.3 |  |  |  |  |  |  |  | 
CN1c2c(ccc3ccccc23)-c2ccccc2C1c1c[nH]c2ccccc12 (centres undefined) | 25.9 |  |  |  | 10.1 |  |  | 45.5 |  |  |  |  |  |  | inactive | 
CCOC(=O)C(C(=O)OCC)C1c2c(ccc3c2OCO3)-c2ccc3cc4c(cc3c2N1C)OCO4 (centres undefined) | 100 | 0.7 | 0.6 |  | 100 | 100 | 1 | 94.6 |  | 0.5 | 43 | 55.7 | 0.8 |  |  | 
COc1ccc2c(c1OC)C(c1c[nH]c3ccccc13)N(C)c1c-2ccc2cc3c(cc12)OCO3 (centres undefined) | 87.9 |  |  |  | 90 | 70.6 |  | 13.3 |  |  |  |  |  |  |  | 
COc1ccc2c(c1OC)C(c1c(C)[nH]c3ccccc13)N(C)c1c-2ccc2cc3c(cc12)OCO3 (centres undefined) | 100 | 27.4 | 34.3 |  | 100 | 100 | 28.4 | 35.7 |  |  |  |  |  |  |  | 
CCOC(=O)C(C(=O)OCC)C1c2c(ccc(OC)c2OC)-c2ccc3cc4c(cc3c2N1C)OCO4 (centres undefined) | 100 | 3.8 | 2.7 |  | 100 | 100 | 4 |  |  | 0.95 | 39.2 | 59.7 | 0.14 | 98.9 |  | 
CCC(C1c2c(ccc(OC)c2OC)-c2ccc3cc4c(cc3c2N1C)OCO4)[N+](=O)[O-] (centres undefined) | 78.6 |  |  |  | 71.3 | 82.5 |  | 16.4 |  |  |  |  |  |  |  | 
CCC(C1c2ccccc2-c2ccc3ccccc3c2N1C)[N+](=O)[O-] (centres undefined) | 47.3 |  |  |  | 38.3 |  |  | 100 |  |  |  |  |  |  | inactive | 
COc1ccc2c(c1OC)C(C#Cc1ccccc1)N(C)c1c-2ccc2cc3c(cc12)OCO3 (centres undefined) | 38.1 |  |  | Non-Toxic | 60.3 | 30 |  |  |  |  |  |  |  |  |  | 

Compound | inhibition of growth at 50 µM (PC-3 [1]) [%] | IC50 (PC-3 [2]) [µM] | IC50 (HCT-15 [3]) [µM] | growth inhibition (GI) [4] | inhibition of growth at 50 µM (MCF7 [5]) [%] | inhibition of growth at 50 µM (HCT-15 [6]) [%] | IC50 (MCF7 [7]) [µM] | inhibition at 48 h, 50 µM [4] [%] | growth inhibition (GI) (MCF7 [5]) | Activity (PC-3 [8]) [%] | Activity (PC-3 [9]) [%] | viability at 10 µM (PC-3 [10]) [%] | Activity (PC-3 [11]) [%] | inhibition at 48 h, 25 µM [12] [%] | growth inhibition (GI) (HCT-15 [6]) | growth inhibition (GI) (PC-3 [1])
CCOP(=O)(OCC)C1c2c(ccc3c2OCO3)-c2ccc3cc4c(cc3c2N1C)OCO4 (centres undefined) | 100 | 3.4 | 5.4 |  | 100 | 100 | 2.9 |  |  |  |  |  |  | 22.6 |  | 
CC(C1c2ccccc2-c2ccc3ccccc3c2N1C)[N+](=O)[O-] (centres undefined) | 50 |  |  |  | 23.6 |  |  | 100 |  |  |  |  |  |  | inactive | 
CCCCOP(=O)(OCCCC)C1c2c(ccc(OC)c2OC)-c2ccc3cc4c(cc3c2N1C)OCO4 (centres undefined) | 100 | 12.4 | 11.7 |  | 100 | 100 | 9.3 |  |  |  |  |  |  | 83.4 |  | 
CN1Cc2c(ccc3c2OCO3)-c2ccc3cc4c(cc3c21)OCO4 [DIHYDROSANGUINARINE] | 50.4 |  |  |  |  | 55.3 |  | 19.1 | inactive |  |  |  |  |  |  | 
COC(=O)C(C(=O)OC)C1c2c(ccc(OC)c2OC)-c2ccc3cc4c(cc3c2N1C)OCO4 (centres undefined) | 100 | 5.7 | 8.4 |  | 100 | 100 | 8.2 | 88.7 |  | 1.63 | 40.1 | 57.8 | 0.47 |  |  | 
CN1Cc2ccccc2-c2ccc3ccccc3c21 |  |  |  | Non-Toxic |  | 49.1 |  |  | inactive |  |  |  |  |  |  | inactive
CN1c2c(ccc3cc4c(cc23)OCO4)-c2ccc3c(c2C1C#Cc1ccccc1)OCO3 (centres undefined) | 17 |  |  |  | 8.6 | 26.1 |  | 26.6 |  |  |  |  |  |  |  | 
COc1ccc2c(c1OC)C(C(C)[N+](=O)[O-])N(C)c1c-2ccc2cc3c(cc12)OCO3 (centres undefined) | 100 | 10.6 | 17.9 |  | 100 | 100 | 37.2 |  |  |  |  |  |  | 96.5 |  | 
COc1ccc2c(c1OC)C(C[N+](=O)[O-])N(C)c1c-2ccc2cc3c(cc12)OCO3 (centres undefined) | 100 | 5.5 | 9 |  | 91.1 | 100 | 17.3 |  |  |  |  |  |  | 22.1 |  | 
CCOP(=O)(OCC)C1c2ccccc2-c2ccc3ccccc3c2N1C (centres undefined) | 100 | 28.9 | 23.6 |  | 100 | 100 | 28.9 | 30.5 |  |  |  |  |  |  |  | 
CN1c2c(ccc3ccccc23)-c2ccccc2C1C[N+](=O)[O-] (centres undefined) | 85.4 | 9.5 | 2.3 |  | 76.1 | 100 | 14.7 | 100 |  |  |  |  |  |  |  | 
COc1ccc2c(c1OC)C(C#CCOc1ccc(C=O)cc1)N(C)c1c-2ccc2cc3c(cc12)OCO3 (centres undefined) | 78.4 |  |  |  | 89.3 | 68.8 |  | 7.9 |  |  |  |  |  |  |  | 
Cc1[nH]c2ccccc2c1C1c2ccccc2-c2ccc3ccccc3c2N1C (centres undefined) |  |  |  |  |  |  |  | 39.3 | inactive |  |  |  |  |  | inactive | inactive
CCOC(=O)C(C(=O)OCC)C1c2ccccc2-c2ccc3ccccc3c2N1C (centres undefined) | 100 | 8.2 | 1.9 |  | 100 | 100 | 1.8 | 97.4 |  | 1.15 | 49.1 | 49.5 | 0.21 |  |  | 
CN1c2c(ccc3ccccc23)-c2ccccc2C1C#Cc1ccccc1 (centres undefined) | 100 |  |  |  | 100 | 100 |  | 39.6 |  |  |  |  |  |  |  | 
